Test results reported in patent publication US10030016B2 (Sunesis Pharmaceuticals, Inc., priority 2009, dated 2018).
Structures can show the parent of a compound that is named as a salt. Where two headings read alike, the source gives them in different places.

Tests used:
PDK1 = PDK1 (Homo sapiens (Human), UniProt O15530); assay: PDK1 kinase assay (coupled PDK1/AKT/FAM-crosstide assay, IMAP fluorescence polarization); type: biochemical
Outline: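 Coupled cascade: 0.75 nM PDK1 (51-359) → 10 nM AKT2 (140-467-PIFtide) → 100 nM FAM-crosstide. ATP 40 μM, 25° C, 30 min. IMAP FP (ex 485/em 530), 2 h binding. ΔmP vs conc, 4-param fit.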

[1] = tested on: phospho-akt (Thr308) in PC-3 cells; assay: Inhibition of phospho-akt (Thr308) in PC-3 cells, MSD phospho-akt 308 ELISA kit; type: cell-based; details: 2 hours, no serum, read-out: EC50
Outline: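 Electrochemiluminescent MSD ELISA of Thr308-phosphorylated Akt after a 2 h serum-free compound exposure of PC-3 cells (15,000/well, plated overnight). Controls: DMSO (high), 5 μM wortmannin (low). Lysate binding overnight at 4 °C; detection antibody 1 h at room temperature.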

[2] = Homo sapiens, inhibition of P308 Akt in PC-3 cells using MSD
[3] = inhibition of phospo-PDK1 in vitro
[4] = Homo sapiens, inhibition of P308 Akt in PC-3 cells, MSD

Chain of PDK1 (O15530 51-359): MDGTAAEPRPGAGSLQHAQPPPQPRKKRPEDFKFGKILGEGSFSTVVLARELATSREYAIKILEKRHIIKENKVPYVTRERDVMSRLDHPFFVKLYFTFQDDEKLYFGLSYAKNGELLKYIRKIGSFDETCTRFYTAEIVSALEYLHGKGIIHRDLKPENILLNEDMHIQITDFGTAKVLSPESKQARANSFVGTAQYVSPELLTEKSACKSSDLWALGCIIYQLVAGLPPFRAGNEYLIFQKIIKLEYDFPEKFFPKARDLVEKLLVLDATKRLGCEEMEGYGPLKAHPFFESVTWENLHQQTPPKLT

SMILES	IC50 (PDK1; inhibition of PDK1 in vitro) [nM]	EC50 [1, 2] [nM]	IC50 (PDK1; [3]) [nM]	EC50 [1, 4] [nM]	further results
C[C@H](NC(=O)c1cc(C#N)cnc1NCc1ccc(-c2cnc(N)c(C(=O)N(C)C)n2)cc1)c1ccc(F)cc1 [Example 210, (S)-3-amino-6-(4-((5-cyano-3-(1-(4-fluorophenyl)ethylcarbamoyl)pyridin-2-ylamino)methyl)phenyl)-N,N-dimethylpyrazine-2-carboxamide]	< 100	1000 to 10000	–	–	–
N#Cc1cnc(NCc2ccc(-c3ccc4ncnc(N)c4c3)s2)c(C(=O)NCc2ccc(F)c(F)c2)c1 [Ex. 8.8.1, 2-(((5-(4-aminoquinazolin-6-yl)thiophen-2-yl)methyl)amino)-5-cyano-N-(3,4-difluorobenzyl)nicotinamide]	–	–	< 100	< 1000	–
C[C@H](NC(=O)c1cc(C#N)cnc1NCc1ccc(-c2cn(S(=O)(=O)c3ccccc3)nc2N)cc1)c1ccc(F)cc1 [Example 143, (S)-2-(4-(3-amino-1-(phenylsulfonyl)-1H-pyrazol-4-yl)benzylamino)-5-cyano-N-(1-(4-fluorophenyl)ethyl) nicotinamide]	> 5000	> 10000	–	–	–
Cc1cc(-c2ccc(CNc3ncc(C#N)cc3C(=O)N[C@@H](C)c3ccc(F)cc3)cc2)cnc1N [Example 104, (S)-2-(4-(6-amino-5-methylpyridin-3-yl)benzylamino)-5-cyano-N-(1-(4-fluorophenyl)ethyl)nicotinamide]	< 100	< 1000	–	–	–
C[C@H](NC(=O)c1cccnc1NCc1ccc(-c2cnc3[nH]c(=O)[nH]c3c2)cc1)c1ccc(F)cc1 [Example 359, (S)-N-(1-(4-fluorophenyl)ethyl)-2-(4-(2-oxo-2,3-dihydro-1H-imidazo[4,5-b]pyridin-6-yl)benzylamino) nicotinamide]	< 100	< 1000	–	–	–
C[C@H](NC(=O)c1cc(C#N)cnc1NCc1ccc(-c2cnc(N)c(N3CCC[C@@H](N)C3)n2)cc1)c1ccc(F)cc1 [Example 188, 2-{4-[5-Amino-6-((R)-3-amino-piperidin-1-yl)-pyrazin-2-yl]-benzylamino}-5-cyano-N-[(S)-1-(4-fluoro-phenyl)-ethyl]-nicotinamide]	< 100	1000 to 10000	–	–	–
C[C@H](NC(=O)c1cc(C#N)cnc1NCc1ccc(-c2cnc(N)c(C(=O)NCCCO)n2)cc1)c1ccc(F)cc1 [Example 209, (S)-3-amino-6-(4-((5-cyano-3-(1-(4-fluorophenyl)ethylcarbamoyl)pyridin-2-ylamino)methyl)phenyl)-N-(3-hydroxypropyl) pyrazine-2-carboxamide]	< 100	–	–	–	EC50 ([1]; inhibition of P308 Akt in PC-3 cells using MSD): < 1000 nM
C[C@H](NC(=O)c1cc(C#N)cnc1N[C@H](C)c1ccc(-c2cn(C)c3ncnc(N)c23)cc1)c1ccc(F)cc1 [Example 434, 2-{(R)-1-[4-(4-Amino-7-methyl-7H-pyrrolo[2,3-d]pyrimidin-5-yl)-phenyl]-ethylamino}-5-cyano-N-[(S)-1-(4-fluoro-phenyl)-ethyl]-nicotinamide]	< 100	< 1000	–	–	–
C[C@H](NC(=O)c1cccnc1NCc1ccc(-c2c[nH]c(=O)c3ccccc23)s1)c1ccc(F)cc1 [Example 2.9, (S)-N-(1-(4-fluorophenyl)ethyl)-2-(((5-(1-oxo-1,2-dihydroiso-quinolin-4-yl)thiophen-2-yl)methyl)amino)nicotinamide]	–	–	1000 to 5000	–	EC50 ([1]; Homo sapiens, PC-3, 2 h, inhibition of P308 Akt in PC-3 cells, MSD): 1000 to 10000 nM
Nc1cnc(-c2ccc(CNc3nccc4ncn(Cc5ccc(F)c(F)c5)c(=O)c34)cc2)cn1 [Example 381, 5-(4-(5-aminopyrazin-2-yl)benzylamino)-3-(3,4-difluorobenzyl)pyrido[4,3-d] pyrimidin-4(3H)-one]	< 100	1000 to 10000	–	–	–
O=C(NCC1CCCC1)c1cccnc1NCc1cccc(-c2c[nH]c3ncccc23)c1 [Example 1.8, 2-(3-(1H-pyrrolo[2,3-b]pyridin-3-yl)benzylamino)-N-(cyclopentylmethyl)nicotinamide]	–	–	100 to 1000	1000 to 10000	–
Cn1cc(-c2ccc(CNc3ncc(C(F)(F)F)cc3C(=O)Nc3ccc(F)cc3)cn2)c2c(N)ncnc21 [Example 56, 2-(((6-(4-amino-7-methyl-7H-pyrrolo[2,3-d]pyrimidin-5-yl)pyridin-3-yl)methyl)amino)-N-(4-fluorophenyl)-5-(trifluoromethyl)nicotinamide]	< 100	< 1000	–	–	–
Nc1ncc(-c2ccc(CNc3ncc(C(F)(F)F)cc3C(=O)Nc3ccc(F)cc3)cc2)nc1CCC1CCNC1 (stereo not drawn) [Example 76, 2-{4-[5-Amino-6-(2-pyrrolidin-3-yl-ethyl)-pyrazin-2-yl]-benzylamino}-N-(4-fluoro-phenyl)-5-trifluoromethyl-nicotinamide]	< 100	< 1000	–	–	–
C[C@H](NC(=O)c1cc(C#N)cnc1NCC1CCN(c2cnc(N)cn2)CC1)c1ccc(F)cc1 [Example 61, (S)-2-(((1-(5-aminopyrazin-2-yl)piperidin-4-yl)methyl)amino)-5-cyano-N-(1-(4-fluorophenyl)ethyl)nicotinamide]	1000 to 5000	> 10000	–	–	–
C[C@H](NC(=O)c1nc(C#N)cnc1NCc1ccc(-c2ccc3c(N)ncnn23)cc1)c1ccc(F)c(F)c1 [Example 181, 3-[4-(4-Amino-pyrrolo [2,1-f][1,2,4]triazin-7-yl)-benzylamino]-6-cyano-pyrazine-2-carboxylic acid [(S)-1-(3,4-difluoro-phenyl)-ethyl]-amide]	< 100	< 1000	–	–	–
CC(=O)Nc1cnc(NCc2ccc(-c3ccc4ncnc(N)c4c3)s2)c(C(=O)NCc2ccc(F)c(F)c2)c1 [Ex. 8.5.1, 5-(acetylamino)-2-({[5-(4-aminoquinazolin-6-yl)thiophen-2-yl]methyl}amino)-N-(3,4-difluorobenzyl)pyridine-3-carboxamide]	–	–	< 100	1000 to 10000	–
N#Cc1cnc(NCc2ccc(-c3c[nH]c4ncnc(N)c34)cc2)c(-c2nccs2)c1 [Example 352]	< 100	> 10000	–	–	–
C[C@H](NC(=O)c1nc(C#N)cnc1NCc1ccc(-c2cnc(N)c(-c3cccc(O)c3)n2)cc1)c1ccc(F)c(F)c1 [Example 235, 3-{4-[5-Amino-6-(3-hydroxy-phenyl)-pyrazin-2-yl]-benzylamino}-6-cyano-pyrazine-2-carboxylic acid [(S)-1-(3,4-difluoro-phenyl)-ethyl]-amide]	< 100	1000 to 10000	–	–	–
Nc1ncnn2ccc(-c3ccc(CNc4ncc(C(F)(F)F)cc4C(=O)Nc4ccc(F)cc4)cc3)c12 [Example 177, 2-[4-(4-Amino-pyrrolo [2,1-f][1,2,4]triazin-5-yl)-benzylamino]-N-(4-fluoro-phenyl)-5-trifluoromethyl-nicotinamide]	< 100	1000 to 10000	–	–	–
C[C@H](NC(=O)c1cc(C(F)(F)F)cnc1NCc1ccc(-c2cnc(N)cn2)cc1)c1ccc(F)c(F)c1 [Example 382, (S)-2-(4-(5-aminopyrazin-2-yl)benzylamino)-N-(1-(3,4-difluorophenyl)ethyl)-5-(trifluoromethyl)nicotinamide]	< 100	< 1000	–	–	–

Further lines, with some results ahead:

IC50 (PDK1; inhibition of PDK1 in vitro) [nM]	EC50 [1, 2] [nM]	IC50 (PDK1; [3]) [nM]	EC50 [1, 4] [nM]	SMILES	further results
–	–	100 to 1000	> 10000	O=C(NCc1ccc(F)c(F)c1)c1cccnc1NCc1cc(-c2c[nH]c3ncccc23)cs1 [Ex. 6.15, N-(3,4-difluorobenzyl)-2-({[4-(1H-pyrrolo[2,3-b]pyridin-3-yl)thiophen-2-yl]-methyl}amino) pyridine-3-carboxamide]	–
–	–	1000 to 5000	> 10000	Nc1ncnc2ccc(-c3ccc(CNc4ncccc4C(=O)NCc4ccncc4)s3)cc12 [Example 3.38, 2-({[5-(4-aminoquinazolin-6-yl)thiophen-2-yl]methyl}amino)-N-(pyridin-4-ylmethyl) pyridine-3-carboxamide (TFA salt)]	–
–	–	> 5000	1000 to 10000	Nc1ncnc2ccc(-c3ccc(CNc4ncccc4C(=O)N(Cc4cncc(F)c4)Cc4cncc(F)c4)s3)cc12 [Example 3.64, 2-(((5-(4-aminoquinazolin-6-yl)thiophen-2-yl)methyl)amino)-N,N-bis((5-fluoropyridin-3-yl)methyl)nicotinamide (TFA salt)]	–
–	–	100 to 1000	1000 to 10000	CC(C)[C@H](NC(=O)c1cccnc1NCc1ccc(-c2ccc3ncnc(N)c3c2)s1)c1cccc(F)c1 [Example 3.44, (S)-2-((5-(4-aminoquinazolin-6-yl)thiophen-2-yl)methylamino)-N-(1-(3-fluorophenyl)-2-methylpropyl)nicotinamide (TFA salt)]	–
–	–	< 100	1000 to 10000	C[C@H](NC(=O)c1cccnc1NCc1ccc(-c2ccc3ncnc(N4CC(O)C4)c3c2)s1)c1ccc(F)c(F)c1 [Example 4.34]	–
–	–	100 to 1000	< 1000	C[C@H](NC(=O)c1cc(F)cnc1NCc1ccc(-c2ccc3ncnc(N)c3c2)s1)c1ccc(F)c(F)c1 [Example 7.13, 2-({[5-(4-aminoquinazolin-6-yl)thiophen-2-yl]methyl}amino)-N-[(1S)-1-(3,4-difluorophenyl)ethyl]-5-fluoropyridine-3-carboxamide]	–
–	–	100 to 1000	> 10000	Nc1ncnc2ccc(-c3ccc(CNc4nccnc4C(=O)NCc4cccc(F)c4F)s3)cc12 [Example 3.74, 3-({[5-(4-aminoquinazolin-6-yl)thiophen-2-yl]methyl}amino)-N-(2,3-difluorobenzyl)pyrazine-2-carboxamide (TFA salt)]	–
